Data: patent US6737383B1, “Herbicidal oxadiazolidines” (priority 1999, dated 2004)

Legend:
[1] = test system: bedstraw; assay: Test B pre/postemergence bedstraw; format: in vivo, Galium aparine; details: Preemergence
Method in brief: (§1)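 Response is a visual 0-to-10 score relative to untreated plants, where 0 means no effect and 10 means complete control, taken twelve to sixteen days after application. Treatments went onto soil at planting and onto foliage of 1- to 4-leaf plants, using a surfactant-containing non-phytotoxic solvent.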

[2] = test system: blackgrass; assay: Test B pre/postemergence blackgrass; format: in vivo, Alopecurus myosuroides
Method in brief: as §1

[3] = test system: surinam grass; assay: Test B pre/postemergence surinam grass; format: in vivo, Brachiaria decumbens
Method in brief: as §1

[4] = test system: cocklebur; assay: Test B pre/postemergence cocklebur; format: in vivo, Xanthium strumarium
Method in brief: as §1

[5] = test system: corn; assay: Test B pre/postemergence corn; format: in vivo, Zea mays
Method in brief: as §1

[6] = test system: crabgrass; assay: Test B pre/postemergence crabgrass; format: in vivo, Digitaria sanguinalis
Method in brief: as §1

[7] = test system: giant foxtail; assay: Test B pre/postemergence giant foxtail; format: in vivo, Setaria faberii
Method in brief: as §1

[8] = test system: morningglory; assay: Test B pre/postemergence morningglory; format: in vivo, Ipomoea hederacea
Method in brief: as §1

[9] = test system: pigweed; assay: Test B pre/postemergence pigweed; format: in vivo, Amaranthus retroflexus
Method in brief: as §1

[10] = test system: rape; assay: Test B pre/postemergence rape; format: in vivo, Brassica napus
Method in brief: as §1

[11] = test system: soybean; assay: Test B pre/postemergence soybean; format: in vivo, Glycine max
Method in brief: as §1

[12] = test system: sugar beet; assay: Test B pre/postemergence sugar beet; format: in vivo, Beta vulgaris
Method in brief: as §1

[13] = test system: velvetleaf; assay: Test B pre/postemergence velvetleaf; format: in vivo, Abutilon theophrasti
Method in brief: as §1

[14] = test system: wheat; assay: Test B pre/postemergence wheat; format: in vivo, Triticum aestivum
Method in brief: as §1

[15] = test system: wild oat; assay: Test B pre/postemergence wild oat; format: in vivo, Avena fatua
Method in brief: as §1

[16] = test system: purple nutsedge; assay: Test B pre/postemergence purple nutsedge; format: in vivo, Cyperus rotundus
Method in brief: as §1

[17] = Postemergence, Rate 62 g/ha, scale of 0 to 10, 0 is no effect, 10 is complete control
[18] = Postemergence, Rate 125 g/ha, scale 0 to 10, 0 is no effect, 10 is complete control
[19] = Postemergence, Rate 500 g/ha, scale of 0 to 10 where 0 is no effect and 10 is complete control
[20] = Preemergence, Rate 62 g/ha, scale 0 to 10 (0 no effect, 10 complete control)
[21] = Preemergence, Rate 125 g/ha, scale 0 to 10, 0 is no effect, 10 is complete control
[22] = Preemergence, Rate 500 g/ha, scale of 0 to 10 where 0 is no effect and 10 is complete control
[23] = Rate 250 g/ha, Postemergence, scale of 0 to 10 where 0 is no effect and 10 is complete control

CC(C)N(C(=O)n1oc(=O)n(CCC(F)=C(F)F)c1=O)c1ccccc1 [Compound 566]
Bedstraw plant response rating ([1]; Rate 62 g/ha, scale 0 to 10 (0 no effect, 10 complete control)): 0 | Bedstraw plant response rating ([1]; Rate 125 g/ha, scale 0 to 10, 0 is no effect, 10 is complete control): 0 | Bedstraw plant response rating (0 to 10 scale) ([1]; Rate 250 g/ha): 0 | Bedstraw plant response rating ([1]; Rate 500 g/ha, scale of 0 to 10 where 0 is no effect and 10 is complete control): 0 | Blackgrass plant response rating [2, 17]: 0 | Blackgrass plant response rating [2, 18]: 2 | Plant response rating, Blackgrass [2, 19]: 6 | Blackgrass plant response rating [2, 20]: 3 | Blackgrass plant response rating [2, 21]: 9 | Blackgrass plant response rating (0 to 10 scale) ([2]; Preemergence, Rate 250 g/ha): 10 | Blackgrass plant response rating [2, 22]: 10 | Plant response rating, Blackgrass [2, 23]: 3 | B. signalgrass plant response rating [3, 17]: 2 | B. signalgrass plant response rating [3, 18]: 8 | Plant response rating, B. signalgrass [3, 19]: 9 | B. signalgrass plant response rating [3, 20]: 9 | B. signalgrass plant response rating [3, 21]: 9 | B. signalgrass plant response rating (0 to 10 scale, 0 is no effect, 10 is complete control) ([3]; Preemergence, Rate 250 g/ha): 10 | B. signalgrass plant response rating [3, 22]: 9 | Plant response rating, B. signalgrass [3, 23]: 8 | Cocklebur plant response rating [4, 17]: 2 | Cocklebur plant response rating [4, 18]: 2 | Plant response rating, Cocklebur [4, 19]: 3 | Cocklebur plant response rating [4, 20]: 0 | Cocklebur plant response rating [4, 21]: 0 | Cocklebur plant response rating (0 to 10 scale) ([4]; Preemergence, Rate 250 g/ha): 0 | Cocklebur plant response rating [4, 22]: 0 | Plant response rating, Cocklebur [4, 23]: 2 | Corn plant response rating [5, 17]: 0 | Corn plant response rating [5, 18]: 0 | Plant response rating, Corn [5, 19]: 2 | Corn plant response rating [5, 20]: 0 | Corn plant response rating [5, 21]: 2 | Corn plant response rating (0 to 10 scale) ([5]; Preemergence, Rate 250 g/ha): 2 | Corn plant response rating [5, 22]: 9 | Plant response rating, Corn [5, 23]: 2 | Crabgrass plant response rating [6, 17]: 2 | Crabgrass plant response rating [6, 18]: 8 | Plant response rating, Crabgrass [6, 19]: 9 | Crabgrass plant response rating [6, 20]: 9 | Crabgrass plant response rating [6, 21]: 9 | Crabgrass plant response rating (0 to 10 scale) ([6]; Preemergence, Rate 250 g/ha): 9 | Crabgrass plant response rating [6, 22]: 10 | Plant response rating, Crabgrass [6, 23]: 10 | Giant foxtail plant response rating [7, 17]: 0 | Giant foxtail plant response rating [7, 18]: 8 | Plant response rating, Giant foxtail [7, 19]: 9 | Giant foxtail plant response rating [7, 20]: 9 | Giant foxtail plant response rating [7, 21]: 10 | Giant foxtail plant response rating (0 to 10 scale) ([7]; Preemergence, Rate 250 g/ha): 10 | Giant foxtail plant response rating [7, 22]: 10 | Plant response rating, Giant foxtail [7, 23]: 8 | Morningglory plant response rating [8, 17]: 5 | Morningglory plant response rating [8, 18]: 5 | Plant response rating, Morningglory [8, 19]: 10 | Morningglory plant response rating [8, 20]: 0 | Morningglory plant response rating [8, 21]: 0 | Morningglory plant response rating (0 to 10 scale) ([8]; Preemergence, Rate 250 g/ha): 0 | Morningglory plant response rating [8, 22]: 0 | Plant response rating, Morningglory [8, 23]: 6 | Redroot pigweed plant response rating [9, 17]: 3 | Plant response rating, Redroot pigweed [9, 19]: 5 | Redroot pigweed plant response rating [9, 20]: 0 | Redroot pigweed plant response rating [9, 21]: 9 | Redroot pigweed plant response rating (0 to 10 scale) ([9]; Preemergence, Rate 250 g/ha): 9 | Redroot pigweed plant response rating [9, 22]: 10 | Rape plant response rating [10, 17]: 0 | Rape plant response rating [10, 18]: 0 | Plant response rating, Rape [10, 19]: 9 | Rape plant response rating [10, 20]: 0 | Rape plant response rating [10, 21]: 0 | Rape plant response rating (0 to 10 scale) ([10]; Preemergence, Rate 250 g/ha): 7 | Rape plant response rating [10, 22]: 10 | Plant response rating, Rape [10, 23]: 9 | Soybean plant response rating [11, 17]: 4 | Plant response rating, Soybean [11, 19]: 6 | Soybean plant response rating [11, 20]: 0 | Soybean plant response rating [11, 21]: 0 | Soybean plant response rating (0 to 10 scale) ([11]; Preemergence, Rate 250 g/ha): 0 | Soybean plant response rating [11, 22]: 0 | Plant response rating, Soybean [11, 23]: 6 | Sugarbeets plant response rating [12, 17]: 0 | Plant response rating, Sugarbeets [12, 19]: 5 | Sugarbeets plant response rating [12, 20]: 0 | Sugarbeets plant response rating [12, 21]: 4 | Sugarbeets plant response rating (0 to 10 scale) ([12]; Preemergence, Rate 250 g/ha): 6 | Sugarbeets plant response rating [12, 22]: 6 | Velvetleaf plant response rating [13, 17]: 3 | Plant response rating, Velvetleaf [13, 19]: 5 | Velvetleaf plant response rating [13, 20]: 0 | Velvetleaf plant response rating [13, 21]: 0 | Velvetleaf plant response rating (0 to 10 scale) ([13]; Preemergence, Rate 250 g/ha): 0 | Velvetleaf plant response rating [13, 22]: 2 | Plant response rating, Velvetleaf [13, 23]: 5 | Wheat plant response rating [14, 17]: 0 | Plant response rating, Wheat [14, 19]: 4 | Wheat plant response rating [14, 20]: 0 | Wheat plant response rating [14, 21]: 6 | Wheat plant response rating (0 to 10 scale) ([14]; Preemergence, Rate 250 g/ha): 6 | Wheat plant response rating [14, 22]: 7 | Plant response rating, Wheat [14, 23]: 0 | Wild oats plant response rating [15, 17]: 0 | Plant response rating, Wild oats [15, 19]: 4 | Wild oats plant response rating [15, 20]: 3 | Wild oats plant response rating [15, 21]: 9 | Wild oats plant response rating (0 to 10 scale) ([15]; Preemergence, Rate 250 g/ha): 8 | Wild oats plant response rating [15, 22]: 10 | Plant response rating, Wild oats [15, 23]: 0 | Nutsedge plant response rating [16, 17]: 0 | Nutsedge plant response rating [16, 18]: 0 | Plant response rating, Nutsedge [16, 19]: 0 | Nutsedge plant response rating [16, 20]: 0 | Nutsedge plant response rating [16, 21]: 0 | Nutsedge plant response rating (0 to 10 scale) ([16]; Preemergence, Rate 250 g/ha): 0 | Nutsedge plant response rating [16, 22]: 0
